Measured values as given in patent US20170266257A1, “METHODS OF TREATING TRAUMATIC BRAIN INJURY” (OXEIA BIOPHARMACEUTICALS, INC., priority 2014, published 2017).

How the values were obtained:
GHS-R = GHS-R (Homo sapiens, UniProt Q92847); test: cell based assay of GHS-R antagonist activity (Table 4)
[1] = system: rat model of Parkinson's disease; settings: cited from earlier work
ischemic brain injury = settings: after ischemic brain injury; cited from earlier work

Chain of GHS-R (Q92847 whole entry): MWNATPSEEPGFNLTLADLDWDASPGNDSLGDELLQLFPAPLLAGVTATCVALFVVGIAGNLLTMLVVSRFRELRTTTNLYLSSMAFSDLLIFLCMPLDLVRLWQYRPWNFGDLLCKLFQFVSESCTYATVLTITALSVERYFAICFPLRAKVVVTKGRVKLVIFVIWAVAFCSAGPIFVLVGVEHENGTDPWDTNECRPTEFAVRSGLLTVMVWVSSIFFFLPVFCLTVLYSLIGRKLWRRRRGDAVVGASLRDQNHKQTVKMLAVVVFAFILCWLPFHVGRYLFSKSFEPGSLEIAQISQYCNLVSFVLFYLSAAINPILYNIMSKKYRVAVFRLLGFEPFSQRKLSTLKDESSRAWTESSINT

Row | Molecule | Ki (GHS-R) [nM] | motor function [1] | neuroprotection (ischemic brain injury)
1 | CCN(CC)CCCS(=O)(=O)N[C@H](CCc1ccccc1)c1nc(-c2cncn2C)n[nH]1 [Compound 135] | < 100 |  | 
2 | 3-Diethylamino-propane-1-sulfonic acid {(R)-1-[3-(5-bromo-pyridin-3-yl)-[1,2,4]oxadiazol-5-yl]-phenyl-propyl}-amide [Compound 103] | 100 to 500 |  | 
3 | C=CC[C@]12CCCN1C(=O)CNC2=O [NNZ-2591, cyclo-L-glycyl-L-2-allylproline] |  | improves motor function | neuroprotective
